Test results as given in US20220370397A1, “METHODS AND COMPOSITIONS FOR TREATMENT OF CANCER” (Enzychem Lifesciences Corporation, priority 2019, published 2022).

Tests used:
LLC-1 lung carcinoma = test: LLC-1 syngeneic model, PLAG with or without aPD-1; format: in vivo, C57BL/6 mice
Description: To investigate the enhanced anti tumor effect of the anti-PD-1 antibody (aPD-1 with the addition of 1-palmitoyl-2-linoleoyk-3-acetyl-rac-glycerol (PLAG), the syngeneic model was used (n=6/group), LLC-1 lung carcinoma was implanted into C57BL/6 mice subcutaneously. PLAG was daily administrated for 4 weeks with or without aPD-1 (RMP 1-14. aPD-1 was delivered via IP injection once a week. The degree of infiltrated lymphocyte population and neutrophils in the tumor and blood on the sacrificed day were analyzed (FIG. 12, Table 2).

PAR2 = PAR2 degradation (western blot, immunoprecipitation, ubiquitination assay); format: cell-based; details: PLAG and neutrophil co-treated cancer cells / cancer tissues
tumor in Xenograft mice = test: PLAG alone in Xenograft mice (tumor mass, neutrophil infiltration, chemokines, cell cycle factors by IHC); format: in vivo, mouse
Description: Compared to positive control: *P<0.05, ***P<0.001 (each experiment n=5).
Compared to positive control: *P<0.05, **P<0.01 (each experiment n=5).
N.S., not significant. Compared to positive control; #P<0.05, ##P<0.01, ###P<0.001 (each experiment n=5). N.S.′, not significant.
Compared to positive control: *P<0.05, **P<0.01 (each experiment n=5). N.S., not significant.

[1] = tested on: MDA-MB-231 breast cancer Xenograft; test: MDA-MB-231 breast cancer Xenograft model, AC-regimen alone and PLAG co-treatment; format: in vivo, mouse
Protocol: MDA-MB-231 breast cancer Xenograft model was used. Tumor growth was evaluated in the AC-regimen alone and PLAG co-treated animals. AC-regimen was delivered via IP injection twice a week with dose of 2/20 and 5/50 mph (Doxorubicin/Cyclophosphamide), and PLAG was daily administered with 100 and 250 mpk. Tumor growth was calculated with 3 day intervals. Neutrophil chemotaxis related chemokines, CXCL1/2/8 and circulating neutrophils were also evaluated with 2 week internal. Expression of apoptosis molecular markers, Bax/Bak and tumor-infiltrating neutrophil (TIN) in the tumor lesion was analyzed by immunohistochemistry (IHC).

[2] = tested on: neutrophil-activated MDA-MB-231 breast cancer cells; test: Cell growth and cell cycle activity in neutrophil-activated cancer cells; format: cell-based
Description: Compared to negative control each week: *P<0.05, **P<0.01, ***P<0.001 (each experiment n=5). N.S., not significant. Compared to neutrophil stimulated only group each week: #P<0.05, ##P<0.01, ###P<0.001 (each experiment n=5). N.S.′, not significant.

[3] = tested on: MB49 murine bladder cancer cells; test: MB49 bladder cancer syngeneic model, PLAG with or without PD-L1 antibody; format: in vivo, C57BL/6 mice
Description: The syngeneic model was used (n=6) to investigate the enhanced anti-tumor effect of PD-L1 antibody with the addition of PLAG. MB49 murine bladder cancer cells were implanted into the C57BL/6 mice subcutaneously and bred for 5 weeks. After a week from tumor implantation, PLAG at different dosages (50/100 mpk) were daily administered orally for another 4 weeks with or without 5 mpk PD-L1 antibody (10F.9G2). PD-L1 antibody was delivered via IP injection once a week. (FIG. 7, Table 1)

CCCCC/C=C\C/C=C\CCCCCCCC(=O)OC(COC(C)=O)COC(=O)CCCCCCCCCCCCCCC (stereo not drawn) [PLAG, 1-palmitoyl-2-linoleoyl-3-acetylglycerol]
tumor burden compared to positive control (LLC-1 lung carcinoma; PLAG alone 50 and 100 mpk): significantly reduced | activity and infiltration of cytotoxic T-Lymphocyte (CTLs) in the tumor compared to aPD-1 alone (LLC-1 lung carcinoma; PLAG co-treated with aPD-1): effectively increased | neutrophil to lymphocyte ratio levels compared to aPD-1 alone (LLC-1 lung carcinoma; PLAG co-treated with aPD-1): decreased remarkably | population of Th 17 compared to the positive control (LLC-1 lung carcinoma; PLAG co-treated with aPD-1): significant reduction | tumor reduction compared to aPD-1 alone (LLC-1 lung carcinoma; PLAG co-treated with aPD-1): 18 | DAMP (adenosine) originated from tumor, plasma (LLC-1 lung carcinoma; PLAG treatment): rapid removal | degree of neutrophil infiltration in the tumor (LLC-1 lung carcinoma; upon PLAG treatment): effectively reduced | PAR2 degradation (PAR2): inducing PAR2 degradation | expression of neutrophil chemotactic chemokine in cancer tissues (tumor in Xenograft mice): effectively regulate | infiltration of neutrophils in cancer tissues (tumor in Xenograft mice): control excessive infiltration of neutrophils | cell cycle of cancer tissues / excessive growth (tumor in Xenograft mice; without additional chemotherapeutic agents): regulate excessive growth by inhibiting the cell cycle | tumor tissue on the sacrifice day ([1]; 250 mpk PLAG co-treated with 5/50 AC-regimen): no tumor tissues were found | tumor burden compared with AC-regimen alone group ([1]; PLAG 100 and 250 mpk daily co-treated with 5/50 AC-regimen, p<0.05): significantly decreased in a concentration-dependent manner | tumor-infiltrating neutrophil (TIN) ([1]; PLAG added to AC-regimen, IHC): Significantly reduced | chemokine expression ([1]; PLAG added to AC-regimen, chemokine analysis): Significantly reduced | chemokine expression ([1]; PLAG alone): reduced | tumor growth ([1]; PLAG alone): interruption of tumor growth | tumor-infiltrating neutrophil (TIN) ([1]; PLAG alone): reduced | kind of combined effect on regression of tumor burden ([1]; PLAG co-treated with AC-regimen): synergistic effect | tumor burden compared with AC-regimen alone ([1]; PLAG co-treated with AC-regimen, until sacrifice): smaller tumor burden than that in AC-regimen alone | cell cycle activity ([2]; neutrophil activated cancer cells): inhibitory effect | cell growth ([2]; neutrophil-activated MDA-MB-231 cells, dose-dependent): inhibition of cell growth | number of TINs ([3]; PLAG alone): effectively reduced | tumor burden compared to positive control ([3]; PLAG alone 50 and 100 mpk, oral daily, p<0.05): decreased to a significant value | growth of the tumor compared to PD-L1 antibody alone ([3]; PLAG and PD-L1 antibody simultaneously): significantly reduced | neutrophil-to-lymphocyte ratio (NLR) level compared to PD-L1 antibody alone ([3]; PLAG and PD-L1 antibody, blood, every two weeks): significantly decreased | chemokine secretion ([3]; PLAG treated groups): reduced
